Assay [1] addresses T1, CvTA (Chromobacterium violaceum, UniProt Q7NWG4, V124N).
T1 construct: gene CV_2025
Description: biochemical.

For assay [2], the target named is T2, HeTA (Halomonas elongata, UniProt E1V913, N120V).
T2 construct: gene spuC; IMAC-purified recombinant from E. coli BL21 (DE3) Star; dimer
Description: differential scanning fluorimetry (SYPRO Orange), T1/[…] vs PLP, 1-site fit. Type of assay: binding. (In DSF a fluorescence change marks the thermal transition of the protein.)

Assay [3] has as its target T3, HeTA (Halomonas elongata, UniProt E1V913).
T3 construct: gene spuC; IMAC-purified recombinant from E. coli BL21 (DE3) Star; dimer
T3 sequence (E1V913 1-461): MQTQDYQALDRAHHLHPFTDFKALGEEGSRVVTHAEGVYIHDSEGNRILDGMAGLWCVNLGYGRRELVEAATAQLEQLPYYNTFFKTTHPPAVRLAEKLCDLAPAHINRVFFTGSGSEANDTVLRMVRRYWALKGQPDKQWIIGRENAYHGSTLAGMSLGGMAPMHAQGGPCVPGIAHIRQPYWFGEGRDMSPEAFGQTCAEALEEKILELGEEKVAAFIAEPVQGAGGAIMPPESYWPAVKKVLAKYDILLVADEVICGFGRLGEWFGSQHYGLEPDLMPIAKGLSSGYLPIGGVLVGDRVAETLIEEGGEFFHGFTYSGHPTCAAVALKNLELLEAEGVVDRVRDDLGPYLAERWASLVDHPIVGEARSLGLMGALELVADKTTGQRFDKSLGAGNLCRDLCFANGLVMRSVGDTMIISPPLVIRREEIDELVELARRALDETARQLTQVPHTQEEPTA
The assay is described as above. It is filed as binding.

Assay [4] addresses PfTA (Pseudomonas fluorescens). The assay is described as above. It is filed as binding. The note with it: apo form, 1 mg/mL protein, PLP 1–250 μM, 50 mM phosphate pH 8; cofactor forms internal aldimine (covalent).
The target of assay [5] is T4, CvTA (Chromobacterium violaceum, UniProt Q7NWG4).
T4 construct: gene CV_2025; IMAC-purified recombinant from E. coli BL21 (DE3) Star; dimer
T4 sequence (Q7NWG4 1-459): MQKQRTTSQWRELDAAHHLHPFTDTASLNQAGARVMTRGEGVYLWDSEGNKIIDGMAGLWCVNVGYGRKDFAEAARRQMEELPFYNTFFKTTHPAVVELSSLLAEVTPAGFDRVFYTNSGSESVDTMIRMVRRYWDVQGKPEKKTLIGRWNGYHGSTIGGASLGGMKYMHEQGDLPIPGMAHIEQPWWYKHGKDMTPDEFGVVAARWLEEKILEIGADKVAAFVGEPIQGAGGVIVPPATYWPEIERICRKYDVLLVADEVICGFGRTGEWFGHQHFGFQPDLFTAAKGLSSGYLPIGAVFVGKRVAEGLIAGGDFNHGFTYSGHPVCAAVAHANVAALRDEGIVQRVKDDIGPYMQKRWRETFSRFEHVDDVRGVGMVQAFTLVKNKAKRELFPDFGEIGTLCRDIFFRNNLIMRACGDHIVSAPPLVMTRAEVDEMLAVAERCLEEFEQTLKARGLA
Described as above. Type of assay: binding.

The target in assay [6] is Pseudomonas fluorescens ω-transaminase (Pseudomonas fluorescens). As to the kind of experiment: crystal structure; PfTA crystallised with PLP; sitting drop vapor diffusion at 20°C; 6 mg/mL protein in 50 mM HEPES pH 7.5, 300 mM NaCl, 0.1 mM PLP, 1% glycerol, 20 mM DTT mixed 1:1 with 0.1 M sodium citrate pH 5.6, 12% w/v PEG 6000, 0.1 M lithium sulfate; 2.2 Å; interfaces analysed with the PISA server.

T2 sequence (E1V913 entry or part of it N120V): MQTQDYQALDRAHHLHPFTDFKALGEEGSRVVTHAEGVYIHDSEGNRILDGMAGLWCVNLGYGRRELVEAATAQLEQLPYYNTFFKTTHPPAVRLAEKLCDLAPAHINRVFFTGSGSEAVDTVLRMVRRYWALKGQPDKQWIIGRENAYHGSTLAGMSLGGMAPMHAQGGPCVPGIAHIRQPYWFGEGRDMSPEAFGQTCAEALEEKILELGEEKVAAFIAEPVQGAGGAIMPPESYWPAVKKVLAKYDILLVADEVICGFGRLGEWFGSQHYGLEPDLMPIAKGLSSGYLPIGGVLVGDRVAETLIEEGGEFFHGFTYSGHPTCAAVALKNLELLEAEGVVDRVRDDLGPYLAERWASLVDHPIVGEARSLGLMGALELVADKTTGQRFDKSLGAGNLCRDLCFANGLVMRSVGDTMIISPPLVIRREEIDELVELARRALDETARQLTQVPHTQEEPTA

By Kd is commonly meant the constant that tells how readily two partners part at equilibrium. For the compound `Cc1ncc(COP(=O)(O)O)c(C=O)c1O` [PLP], the Kd at CvTA [1] came to 16.4 ± 5.6 µM; at HeTA [2] it was 30.3 ± 4.1 µM; at HeTA [3], 12.4 ± 3.6 µM; in assay [4], 14.8 ± 2.5 µM; at CvTA [5] it was 59 ± 15.8 µM.
One may read the stoichiometry N as the number of molecules, sites or subunits per partner or assembly. Take “Pseudomonas fluorescens ω-transaminase (enzyme)”: the stoichiometry N in assay [6] turned out to be 4.

The record behind these values is PMC6813460, “Enhancing PLP-Binding Capacity of Class-III ω-Transaminase by Single Residue Substitution” (Frontiers in Bioengineering and Biotechnology, 2019).
